Experiments:
EGFR = molecular target: T1, EGFR (Homo sapiens, UniProt P00533); assay: Assay for modulation of EGFR activity (ELISA); format: biochemical; settings: read-out: bio EGFR IC50
T1 construct: A431 […] cell lysate is stored at −80° C; host or cells: A431 cell lysate
Protocol: Using the following reagents, supplies, and method, the ability of compounds of the invention to modulate the in vitro activity of EGFR can be readily determined in an ELISA.
A431 […] cell lysate is stored at −80° C.
ATP/MnCl2 phosphorylation mix is prepared by adding 300 μL of 1.0 mM ATP and […] of 1M MnCl2 to 9.2 mL of dH2O and mixing. Ten mL of phosphorylation mix is enough for about 6 assay plates. Note that the mixture should be made fresh and kept on ice immediately before use, and that although the preferred ATP is fresh from powder stock, any remaining stock solution of ATP may be frozen at −20° C. in small aliquots to be used at a later time.
Coat Corning 96 well ELISA plates with 0.5 μg per well with SUMO1 in a volume of 100 μL PBS overnight, at 4° C. Remove unbound SUMO1 from wells by inverting plate to remove liquid. Wash 1× with distilled H2O by filling wells. Pat the plate on a paper towel to remove excess liquid.
Add 150 μL of Blocking Buffer to each well. Incubate for 30 minutes at room temperature, with shaking. Wash plate 3× with deionized water, then once with TBST. Pat plate on a paper towel to remove excess liquid and bubbles.
Dilute lysate in PBS (7 μg lysate/[…]) and add 100 μL of diluted lysate to each well. Shake at room temperature for 60 minutes. Wash 1× with distilled H2O by filling wells. Pat the plate on a paper towel to remove excess liquid.
Add 120 μL TBST to ELISA plate containing captured EGFR.
Dilute drugs/extracts 1:10 (unless specified otherwise) in TBST in 96-well polypropylene plates. (i.e., 10 μL compound+90 μL TBST). Add 13.5 μL diluted drugs/extracts to ELISA plate. […] Incubate for 30 minutes while shaking at room temperature.
Approximately 150 μL final volume in well with 3 uM ATP/5 mM MnCl2 final concentration in well. Incubate 5 minutes while shaking. Note that this is a timed event. It is critical that ATP/MnCl2 phosphorylates the receptor for only 5 minutes. It is best to add the ATP/MnCl2 with an automated 96 place pipettor workstation, then 5 minutes later stop the reaction with EDTA using the same workstation. Alternatively, addition can be performed using a 12 channel pipettor 1 row at a time, leaving 20 seconds between each row so that the reaction may be stopped with EDTA exactly 5 minutes later (this depends on the number of plates being phosphorylated in one batch). Shake between each addition.
[…] This is done using either the same work station as above, or the same timing method employed with the 12 channel pipettor. After the EDTA has been added, shake for 1 minute. Wash 4× with deionized water, twice with TBST.
Add 100 μL per well of anti-phosphotyrosine (1:3000 dilution in TBST). Incubate 30-45 minutes at room temperature, with shaking. Wash 1× with distilled H2O by filling wells. Pat the plate on a paper towel to remove excess liquid.
Incubate 30 minutes at room temperature, with shaking. Wash 1× with distilled H2O by filling wells. Pat the plate on a paper towel to remove excess liquid.
Add 100 μL of ABTS/H2O2 solution to each well. Incubate 5 to 10 minutes while shaking. Remove any bubbles. If necessary stop reaction with the addition of 100 μL of 0.2M HCl per well.
Read assay on Dynatech MR7000 ELISA reader.

HER-2 = molecular target: T2, HER-2 (Homo sapiens, UniProt P04626); assay: Assay for modulation of HER-2 activity in whole cells (ELISA); format: cell-based; settings: EGFR/HER-2chimera/#T3-C7 cell lines, EGF stimulated; read-out: HER-2 kinase IC50
T2 construct: expressed in mouse 3T3 (clone C7) cells; P00533 (Epidermal growth factor receptor)
Protocol: Using the following reagents, supplies, and method, the ability of compounds of the invention to affect the activity of HER-2 in whole cells in an ELISA format can be assigned.
EGFR/HER-2chimera/#T3-C7 cell lines are used for this assay. Choose dishes having 80-90% confluence for the experiment. Collect cells by trypsinization and centrifuge at 1000 rpm at room temperature for 5 minutes.
Resuspend cells in starve medium and count with trypan blue. Only viability above 90% is acceptable. Seed cells in starve medium at a density of 2,500 cells per well, 90 μL per well, in a 96 well microtiter plate. Incubate seeded cells in 5% CO2 at 37° C. overnight. Start the assay two days after seeding.
Samples are diluted directly into a polypropylene plate containing starve-DMEM (non-sterile is okay). This dilution will be 1:10 or greater, depending on the samples being screened. The same amount of DMSO is put into the control wells. […] are then transferred to the cell plate at a 1:10 dilution (10 μL of sample and media into 90 μL of starve media). The final DMSO concentration will be 1% or lower.
Ten samples are put into wells 2-11 of row A of the NUNC 96 well polypropylene plate. These wells contain straight starve-DMEM. For a 1:10 dilution, one would put 10 μL of drug into 90 μL of media. The rest of the wells (including the controls) will have a DMSO/media mixture. The percentage of DMSO in this mixture is determined by the first dilution factor, in this case 1:10. The DMSO concentration is therefore 10%. An equal amount of drug and media from row A is put into row B, containing DMSO and media. The same amount is then taken out and put into row C. This is repeated for all rows. These are 1:2 dilutions. All wells are then transferred to the cell plate at a 1:10 dilution (10 μL of sample and media into 90 μL of starve-DMEM. The final DMSO concentration will be 1% or lower. […]
After a 2 hour incubation with the drug, add prepared EGF ligand to cells at 50 μL per well, for a final concentration of 50 nM. Positive control wells (8) receive the same amount of EGF. […] Incubate at 37° C. for 10 minutes.
Remove drug, EGF, and DMEM by dumping in sink. Wash cells once with PBS.
Transfer HNTG* to cells, 100 μL per well. Place on ice for 5 minutes. Meanwhile, remove blocking buffer from ELISA plate and wash as described above. With a pipette tip securely fitted to a micropipettor, scrape cells from plate and homogenize cell material by repeatedly aspirating and dispensing the HNTG* lysis buffer. Transfer lysate to a coated, blocked, washed ELISA plate. Alternatively, one may use a Costar transfer cartridge to transfer lysate to the ELISA plate. Incubate, shaking, at room temperature for one hour.
Remove lysate by dumping in sink, then wash as described earlier. Transfer freshly diluted anti-phosphotyrosine (anti-Ptyr) antibody (1:3000 in TEST) to ELISA plate, 100 μL per well. Incubate, shaking, at room temperature, for 30 minutes.
Remove anti-Ptyr antibody by dumping in sink, then wash as described earlier. Transfer freshly diluted BIOSOURCE antibody to ELISA plate, (1:8000 in TEST), 100 μL per well. Incubate, shaking, at room temperature for 30 minutes.
Remove BIOSOURCE antibody by dumping in sink, then wash as described earlier. Transfer freshly prepared ABTS/H2O2 solution to ELISA plate, […]. Incubate 5-10 minutes while shaking. Remove any bubbles and if necessary, stop reaction with the addition of 100 μL of 0.2 M HCl per well.
Read assay on Dynatech MR7000 ELISA reader. Test Filter: […]; Reference Filter: […]. A preferred template for the placement of controls in this experiment is provided below: […]

T2 sequence (P04626 720-987 limits assumed): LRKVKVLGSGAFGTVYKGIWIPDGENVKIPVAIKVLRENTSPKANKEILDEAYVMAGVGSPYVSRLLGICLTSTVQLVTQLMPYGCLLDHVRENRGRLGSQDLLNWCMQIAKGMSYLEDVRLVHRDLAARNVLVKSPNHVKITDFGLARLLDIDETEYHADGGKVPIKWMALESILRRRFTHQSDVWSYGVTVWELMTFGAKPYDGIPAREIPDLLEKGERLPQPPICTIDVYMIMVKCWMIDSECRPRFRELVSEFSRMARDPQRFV
T1 sequence (P00533 25-1210): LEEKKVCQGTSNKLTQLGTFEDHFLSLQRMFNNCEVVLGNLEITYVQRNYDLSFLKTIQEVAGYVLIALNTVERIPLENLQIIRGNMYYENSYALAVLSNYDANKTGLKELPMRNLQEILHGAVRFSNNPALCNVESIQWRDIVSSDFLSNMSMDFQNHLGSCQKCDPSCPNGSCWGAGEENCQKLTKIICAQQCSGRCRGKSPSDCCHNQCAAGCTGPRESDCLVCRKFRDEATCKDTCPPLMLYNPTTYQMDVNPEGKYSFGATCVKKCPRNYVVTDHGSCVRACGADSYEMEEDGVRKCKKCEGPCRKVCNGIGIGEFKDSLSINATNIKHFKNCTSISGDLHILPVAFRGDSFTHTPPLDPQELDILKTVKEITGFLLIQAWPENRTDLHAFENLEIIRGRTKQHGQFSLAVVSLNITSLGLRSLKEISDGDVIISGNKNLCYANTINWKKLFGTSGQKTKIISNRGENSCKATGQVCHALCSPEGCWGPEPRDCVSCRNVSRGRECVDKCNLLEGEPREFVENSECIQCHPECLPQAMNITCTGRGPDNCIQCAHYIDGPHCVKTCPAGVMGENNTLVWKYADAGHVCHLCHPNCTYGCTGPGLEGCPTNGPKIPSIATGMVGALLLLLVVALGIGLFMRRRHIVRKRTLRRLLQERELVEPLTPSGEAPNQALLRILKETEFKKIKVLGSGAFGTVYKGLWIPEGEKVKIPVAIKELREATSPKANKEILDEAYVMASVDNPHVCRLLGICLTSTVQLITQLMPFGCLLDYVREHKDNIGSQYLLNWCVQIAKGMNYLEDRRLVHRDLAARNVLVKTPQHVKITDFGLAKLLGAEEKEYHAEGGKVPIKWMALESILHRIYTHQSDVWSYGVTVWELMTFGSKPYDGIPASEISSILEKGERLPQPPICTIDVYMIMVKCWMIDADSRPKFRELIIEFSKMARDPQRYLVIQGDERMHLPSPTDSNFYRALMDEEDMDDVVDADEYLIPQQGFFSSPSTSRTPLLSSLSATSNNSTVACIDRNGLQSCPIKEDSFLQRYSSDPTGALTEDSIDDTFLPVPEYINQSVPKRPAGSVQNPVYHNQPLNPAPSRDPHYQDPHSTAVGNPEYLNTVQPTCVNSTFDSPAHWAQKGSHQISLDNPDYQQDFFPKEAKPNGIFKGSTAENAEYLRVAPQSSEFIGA

Structure (SMILES) | IC50 (EGFR) [nM] | IC50 (HER-2) [nM]
Cc1cc(/C=C2\C(=O)Nc3ncnc(Nc4ccc(F)c(Cl)c4)c32)[nH]c1C(=O)N1CCN(C)CC1 [Formula 35] | 400 | 590
CCN(CC)CCNC(=O)c1c(C)[nH]c(/C=C2\C(=O)Nc3ncnc(Nc4ccc(F)c(Cl)c4)c32)c1C [Formula 28] | 210 | 160
Cc1cc(C(=O)NCCN2CCOCC2)[nH]c1/C=C1\C(=O)N(C)c2ncnc(Nc3ccc(F)c(Cl)c3)c21 [Formula 32] | 7140 | 18700
Cc1cc(CCC(=O)N2CCN(C)CC2)[nH]c1/C=C1\C(=O)Nc2ncnc(Nc3ccc(F)c(Cl)c3)c21 [Formula 25] | 58 | 11900

Continued, values first:

IC50 (EGFR) [nM] | IC50 (HER-2) [nM] | Structure (SMILES)
5 | 1800 | Cc1cc(CCC(=O)O)[nH]c1/C=C1\C(=O)Nc2ncnc(Nc3ccc(F)c(Cl)c3)c21 [Formula 49]
38 | 860 | Cc1[nH]c(/C=C2\C(=O)Nc3ncnc(Nc4ccc(F)c(Cl)c4)c32)c(C)c1CC(=O)O [Formula 51]
